“Also recorded” adds a separate entry of the source. Where a name gives a salt, the structure may show the parent alone. Marks after values point to notes of the source that are not given here. Each block holds one compound with its values, some of them ahead of it. Square brackets hold non-standard residues; d marks the D form. Peptide text beside a SMILES is read from it. pY = N[C@@H](Cc1ccc(OP(=O)(O)O)cc1)C(=O)O
Tests used:
[1] = target: T1, plasma DP IV activity (Rattus norvegicus, UniProt P14740); experiment: DP IV inhibiting activity after intravasal and oral administration to Wistar rats; type: in vivo; conditions: 100 mg/kg; for in vivo DP IV-inhibition at tmax, i.v.: intra-vasal (intra-arterial); for in vivo DP IV-inhibition at tmax, p.o.: oral
T1 construct: from tissue; host or cells: plasma of Wistar rats
Procedure: Male Wistar rats (Shoe: Wist(Sho)) with a body weight ranging between 250 and 350 g were purchased from Tierzucht Schönwalde (Schönwalde, Germany).
Animals were single-caged under conventional conditions with controlled temperature (22±2° C.) on a 12/12 hours light/dark cycle (light on at 06:00 AM). Standard pelleted chow (ssniff® Soest, Germany) and tap water acidified with HCl were allowed ad libitum.
After ≧one week of adaptation at the housing conditions, catheters were implanted into the carotid artery of Wistar rats under general anaesthesia (i.p. injection of 0.25 ml/kg b.w. Rompun® [2%], BayerVital, Germany and 0.5 ml/kg b.w. Ketamin 10, Atarost GmbH & Co., Twistringen, Germany). The animals were allowed to recover for one week. The catheters were flushed with heparin-saline (100 IU/ml) three times per week. In case of catheter dysfunction, a second catheter was inserted into the contra-lateral carotid artery of the respective rat. After one week of recovery from surgery, this animal was reintegrated into the study. In case of dysfunction of the second catheter, the animal was withdrawn from the study. A new animal was recruited and the experiments were continued in the planned sequence, beginning at least 7 days after catheter implantation.
After overnight fasting, 100 μl samples of heparinised arterial blood were collected at −30, −5, and 0 min. […] In the case of oral administration, an additional volume of 1 ml saline was injected into the arterial catheter. In the case of intra-arterial administration, the catheter was immediately flushed with 30 μl saline and an additional 1 ml of saline was given orally via the feeding tube.
All blood samples were collected into ice cooled Eppendorf tubes (Eppendorf-Netheler-Hinz, Hamburg, Germany) filled with 10 μl 1 M sodium citrate buffer (pH 3.0) for plasma DP IV activity measurement. Eppendorf tubes were centrifuged immediately (12000 rpm for 2 min, Hettich Zentrifuge EBA 12, Tuttlingen; Germany): The plasma fractions were stored on ice until analysis or were frozen at −20° C. until analysis. All plasma samples were labelled with the following data: • Code number • Animal Number • Date of sampling • Time of sampling Analytical Methods
The assay mixture for determination of plasma DP IV activity consisted of 80 μl reagent and 20 μl plasma sample. […] The DP IV activity was expressed in mU/ml.
All parameters were analysed in a descriptive manner including mean and SD.

[2] = target: T2, porcine DP II (Sus scrofa, UniProt A0A5G2QK18); experiment: Inhibition of DP IV-like enzymes, dipeptidyl peptidase II; type: biochemical
T2 construct: The enzyme used was purified from porcine kidney; from tissue; host or cells: porcine kidney
Procedure: DP II (3.4.14.2) releases N-terminal dipeptides from oligopeptides if the N-terminus is not protonated (McDonald, J. K., Ellis, S. & Reilly, T. J., 1966, J. Biol. Chem., 241, 1494-1501). Pro and Ala in P1-position are preferred residues. The enzyme activity is described as DP IV-like activity, but DP II has an acidic pH-optimum. The enzyme used was purified from porcine kidney.
100 μl glutaminylpyrrolidine or glutaminylthazolidine in an concentration range of 1*10^−4 M-5*10^−8M were admixed with 100 μl μl buffer solution (40 mM HEPES, pH7.6, 0.015% Brij, 1 mM DTT), 50 μl lysylalanylaminomethylcoumarine solution (5 mM) and 20 μl porcine DP II (250fold diluted in buffer solution). Fluorescence measurement was performed at 30° C. and λexiatation=380 nm, λemission=465 nm for 25 min using a plate reader (HTS7000plus, Applied Biosystems, Weiterstadt, Germany).

[3] = target: T3, Dipeptidyl Peptidase I (DP I, Cathepsin C) (Rattus norvegicus, UniProt P80067); experiment: Cross reacting enzymes: dipeptidyl peptidase I; type: biochemical; conditions: concentration range 1*10^−5M-1*10^−7M
T3 construct: purchased Qiagen GmbH, Hilden, Germany
T3 sequence (P80067 25-462): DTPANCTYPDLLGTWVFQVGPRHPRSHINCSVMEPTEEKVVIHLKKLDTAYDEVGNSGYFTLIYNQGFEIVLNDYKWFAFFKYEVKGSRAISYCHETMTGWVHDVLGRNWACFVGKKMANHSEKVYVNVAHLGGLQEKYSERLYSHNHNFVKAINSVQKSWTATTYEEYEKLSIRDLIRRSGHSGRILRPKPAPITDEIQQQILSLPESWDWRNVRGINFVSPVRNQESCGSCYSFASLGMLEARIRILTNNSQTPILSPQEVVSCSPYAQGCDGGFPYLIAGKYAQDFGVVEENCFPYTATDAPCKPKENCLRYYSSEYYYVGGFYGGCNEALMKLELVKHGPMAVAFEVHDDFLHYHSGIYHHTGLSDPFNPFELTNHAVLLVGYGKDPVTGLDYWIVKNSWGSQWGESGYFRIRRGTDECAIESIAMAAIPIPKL
Procedure: DP I or cathepsin C is a lysosomal cysteine protease which cleaves off dipeptides from the N-terminus of their substrates (Gutman, H. R. & Fruton, J. S., 1948, J. Biol. Chem., 174, 851-858). It is classified as a cysteine protease. The enzyme used was purchased from Qiagen (Qiagen GmbH, Hilden, Germany). In order to get a fully active enzyme, the enzyme was diluted 1000 fold in MES buffer pH5,6 (40 mM MES, 4 mM DTT, 4 mM KCl, 2 mM EDTA, 0.015% Brij) and pre-incubated for 30 min at 30° C.
50 μl glutaminylpyrrolidine or glutaminylthazolidine in a concentration range of 1*10^−5M-1*10^−7M were admixed with 110 μl buffer-enzyme-mixture. The assay mixture was pre-incubated at 30° C. for 15 min. After pre-incubation, 100 μl, histidylseryl-β-nitroaniline (2*10^−5M) was added and measurement of yellow color development due to β-nitroaniline release was performed at 30° C. and […] for 10 min., using a plate reader (HTS7000 plus, Applied Biosystems, Weiterstadt, Germany).
The IC 50-values were calculated using Graphit 4.0.15 (Erithacus Software, Ltd., UK).

[4] = target: purified porcine DP IV (Sus scrofa, UniProt P22411); experiment: Determination of IC50 values, DP IV; type: biochemical; conditions: Gly-Pro-pNA 0.4 mM, HEPES pH 7.6, 30° C.
Procedure: 100 μl inhibitor stock solution were mixed with 100 μl buffer (HEPES pH7.6) and 50 μl substrate (Gly-Pro-pNA, final concentration 0.4 mM) and preincubated at 30° C. Reaction was started by addition of 20 μl purified porcine DP IV. Formation of the product pNA was measured at 405 nm over 10 min using the HTS 7000Plus plate reader (Perkin Elmer) and slopes were calculated. The final inhibitor concentrations ranged between 1 mM and 30 nM. For calculation of IC50 GraFit 4.0.13 (Erithacus Software) was used.

[5] = system: EAE; conditions: chronic treatment, female Lewis rats; cited from earlier work
[6] = system: experimental autoimmune encephalomyelitis (EAE); experiment: EAE experiment 2: i.p. treatment day 5-15, male Lewis rats; type: in vivo; parameters: key to Average score / Maximal score: 0.5 = partial tail tone loss … 4 = quadriplegia, 5 = death; Onset of disease (1st day of score > 1): unit not given here; conditions: for Average score / Maximal score / Onset of disease (1st day of score > 1) / Sum of scores: days 5-15 p.i.
Procedure: (§1) For the second experiment, male inbred Lewis rats (n=50) with a mean body weight of 230±12 g, were obtained from Charles River (Bad Sulzfeld, Germany). Animals were randomly assigned to the different experimental conditions. Rats were housed four per cage under a 12:12 h light: dark cycle (lights off at 18:00 h) and at constant temperature (24° C.) in a specific pathogen free air-conditioned colony room with food (Altromin lab chow pellets) and tap water available ad lib. The animals underwent routine cage maintenance once a week.
(§2) Guinea pig MBP (50 μg/rat) was emulsified in Complete Freund's adjuvant (CFA) containing heat-killed Mycobacterium tuberculosis (H37Ra; 225 μg/rat) and injected s.c. at the base of the tail in a total volume of 100 μl (12). CFA (Sigma) and heat-killed Mycobacterium tuberculosis (H37Ra) were purchased from Life Technologies, Inc. (Rockville, Md.). Clinical disease was scored on the following scale: 0.5: partial loss of tail tone; 1.0: complete tail atony; 2.0: hind limb weakness; 2.5: hind limb paralysis of one leg; 3.0: hind limb paralysis of both legs; 3.5: limb paralysis of three legs; 4.0: quadriplegia and moribund status; 5.0: death due to EAE. Experiments were terminated on day 21 post immunization (p.i.).
The incidence of adjuvant-induced arthritis was remarkably low (n=0 in the 2nd experiment) using the base of the tail as an immunization site. In the second experiment no signs of arthritis were found. […] This time, these animals remained in the analysis, because this finding is probably due to the treatment. In this experiment a phenomenon called “disease dissociation” was observed. In several animals there was a clear tonus of the tail associated with a clear weakness of the hind limbs. The animals were scored maximal, i.e. 2.
(§3) Comparison over time between the clinical course of EAE of the different treatment conditions was conducted using a two factorial analysis of variance (ANOVA) for repeated measures. Sums of clinical scores of EAE, onset and peak of disease were calculated on the basis of the clinical scores per day and analyzed using a one factorial ANOVA and post hoc Fisher's PLSD tests, if appropriate. All data are presented as means±SEM.

[7] = system: experimental autoimmune encephalomyelitis (EAE); experiment: EAE experiment 1: i.p. treatment day 1-15, female Lewis rats; type: in vivo
Procedure: as §1, with “first experiment female” for “second experiment, male”, “190±6” for “230±12”, “week. All research and animal care procedures were approved by the government of Lower Saxony in Hannover, Germany, and performed in compliance with international animal welfare standards.” for “week.”
as §2, with “15” for “21”, “when most of the animals were about 48 h after maximal clinical score. The incidence of adjuvant-induced arthritis was remarkably low (n=0 in the 1st experiment) using the base of the tail as an immunization site. […]” for “(p.i.).”
as §3, with “All data are presented as means±SEM.” left out

T1 sequence (P14740 37-767 limits assumed): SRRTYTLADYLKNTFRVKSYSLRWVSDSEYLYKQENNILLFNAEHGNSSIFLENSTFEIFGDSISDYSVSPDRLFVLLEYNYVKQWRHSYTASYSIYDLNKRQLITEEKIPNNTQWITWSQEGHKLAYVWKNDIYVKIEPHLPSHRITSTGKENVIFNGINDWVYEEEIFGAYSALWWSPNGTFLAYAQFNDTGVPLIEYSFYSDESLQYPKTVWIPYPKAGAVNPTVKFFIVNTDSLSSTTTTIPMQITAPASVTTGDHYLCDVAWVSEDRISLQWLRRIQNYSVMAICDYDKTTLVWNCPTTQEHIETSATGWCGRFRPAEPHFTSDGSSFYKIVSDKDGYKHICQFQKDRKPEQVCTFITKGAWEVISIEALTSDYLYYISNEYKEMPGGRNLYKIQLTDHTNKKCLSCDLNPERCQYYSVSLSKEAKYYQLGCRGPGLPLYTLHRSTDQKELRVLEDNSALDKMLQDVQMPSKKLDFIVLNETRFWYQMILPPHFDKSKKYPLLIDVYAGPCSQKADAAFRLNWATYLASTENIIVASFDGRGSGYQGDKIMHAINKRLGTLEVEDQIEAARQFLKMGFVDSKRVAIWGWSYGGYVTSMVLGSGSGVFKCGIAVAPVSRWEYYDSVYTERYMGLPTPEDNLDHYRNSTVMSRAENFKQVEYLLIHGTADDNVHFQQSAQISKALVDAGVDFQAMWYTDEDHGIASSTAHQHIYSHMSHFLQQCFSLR
T2 sequence (A0A5G2QK18 28-502): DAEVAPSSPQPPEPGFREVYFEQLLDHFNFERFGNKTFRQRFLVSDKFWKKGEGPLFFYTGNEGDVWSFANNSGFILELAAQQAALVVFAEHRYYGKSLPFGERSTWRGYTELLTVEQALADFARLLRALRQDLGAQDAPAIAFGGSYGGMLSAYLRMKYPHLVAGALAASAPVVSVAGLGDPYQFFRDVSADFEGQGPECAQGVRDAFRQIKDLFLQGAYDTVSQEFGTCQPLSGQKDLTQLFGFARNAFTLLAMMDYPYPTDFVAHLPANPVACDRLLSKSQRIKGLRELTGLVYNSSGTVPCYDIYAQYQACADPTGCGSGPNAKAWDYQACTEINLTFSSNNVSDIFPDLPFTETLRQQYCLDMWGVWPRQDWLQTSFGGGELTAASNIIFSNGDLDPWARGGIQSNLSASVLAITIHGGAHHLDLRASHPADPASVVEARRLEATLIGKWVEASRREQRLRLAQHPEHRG
Chain of purified porcine DP IV (P22411 whole entry): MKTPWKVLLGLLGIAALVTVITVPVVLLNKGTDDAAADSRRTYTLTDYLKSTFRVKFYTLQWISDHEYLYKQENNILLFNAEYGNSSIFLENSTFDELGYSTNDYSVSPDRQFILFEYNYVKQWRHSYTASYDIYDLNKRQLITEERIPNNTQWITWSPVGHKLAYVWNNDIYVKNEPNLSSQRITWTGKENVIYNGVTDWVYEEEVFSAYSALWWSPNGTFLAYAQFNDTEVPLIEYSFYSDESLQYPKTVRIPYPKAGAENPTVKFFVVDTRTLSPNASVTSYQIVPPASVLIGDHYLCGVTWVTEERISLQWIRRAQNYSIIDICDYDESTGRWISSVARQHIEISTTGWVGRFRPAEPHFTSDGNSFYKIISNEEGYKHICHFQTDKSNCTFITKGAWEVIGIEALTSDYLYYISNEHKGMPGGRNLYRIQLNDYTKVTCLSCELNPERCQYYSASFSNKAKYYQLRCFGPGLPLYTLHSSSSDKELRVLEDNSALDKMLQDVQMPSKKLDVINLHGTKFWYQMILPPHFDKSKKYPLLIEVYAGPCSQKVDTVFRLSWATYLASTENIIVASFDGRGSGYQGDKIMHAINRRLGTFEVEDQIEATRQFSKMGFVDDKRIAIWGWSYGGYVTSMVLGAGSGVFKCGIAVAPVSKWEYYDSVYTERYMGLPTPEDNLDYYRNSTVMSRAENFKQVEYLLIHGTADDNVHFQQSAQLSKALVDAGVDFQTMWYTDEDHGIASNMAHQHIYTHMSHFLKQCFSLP

- in vivo DP IV-inhibition at tmax, i.v. [1]: 89%
- in vivo DP IV-inhibition at tmax, p.o. [1]: 86%
SMILES: Br.CC(=O)OCC(=O)[C@@H]1CCCN1C(=O)[C@@H](NC(=O)[C@H](C)N)C(C)C [Ala-Val-Pro-Acyloxymethylketone, H-Ala-Val-Pro-CH2O—C(O)CH3*HBr]

- in vivo DP IV-inhibition at tmax, i.v. [1]: 97%
- in vivo DP IV-inhibition at tmax, p.o. [1]: 76%
SMILES: Br.CC(C)[C@H](NC(=O)[C@H](C)N)C(=O)N1CCC[C@H]1C(=O)COC(=O)c1ccccc1 [Ala-Val-Pro-Benzoyl-methylketone, H-Ala-Val-Pro-CH2O—C(O)Ph*HBr]

- type of inhibition of porcine DP II [2]: non-competitive type inhibitors
- inhibition of DP I enzyme activity [3]: no inhibition
SMILES: NC(=O)CCC(N)C(=O)N1CCCC1 (stereo not shown) [Gln-Pyrr, glutaminyl pyrrolidine]

- IC50 [4]: 5.27 µM
SMILES: NC(=O)CCC(N)C(=O)N1CCSC1 (stereo not shown) [Gln-Thia, glutaminyl thiazolidine]

SMILES: CN(C)CCCN1c2ccccc2CCc2ccccc21 [Imipramine]
- severity of acute MBP-induced EAE [5]: reduce the severity

SMILES: CC[C@H](C)[C@H](NC(=O)[C@@H]1CCCN1C(=O)[C@@H](N)Cc1ccc(OP(=O)(O)O)cc1)C(=O)O [Tyr(P)-Pro-Ile] (H-[pY]-Pro-Ile-OH; N-terminus assumed)
- in vivo DP IV-inhibition at tmax, p.o. [1]: no inhibition

SMILES: CC[C@H](C)[C@H](N)C(=O)N1CCSC1 [isoleucyl thiazolidine fumarate]
- effect on clinical scores in the second peak (classical acute EAE), days 10-13 ([6]; 1 mg dose i.p.): aggravate the clinical scores
- Average score ([6]; 1 mg/kg i.p. daily): 0.96*
- Maximal score ([6]; 1 mg/kg i.p. daily): 2.8
- Onset of disease (1st day of score > 1) ([6]; 1 mg/kg i.p. daily): 10.3*
- Sum of scores ([6]; 1 mg/kg i.p. daily): 14.2*
- effect on disease activity after initiation of treatment, days 6-9 ([6]; 3 mg and 10 mg dosages i.p.): induced a significant first peak of disease activity
- Average score ([6]; 3 mg/kg i.p. daily): 0.8
- Maximal score ([6]; 3 mg/kg i.p. daily): 3.0
- Onset of disease (1st day of score > 1) ([6]; 3 mg/kg i.p. daily): 12.0
- Sum of scores ([6]; 3 mg/kg i.p. daily): 12.0
- Average score ([6]; 10 mg/kg i.p. daily): 0.72
- Maximal score ([6]; 10 mg/kg i.p. daily): 2.1
- Onset of disease (1st day of score > 1) ([6]; 10 mg/kg i.p. daily): 12.1
- Sum of scores ([6]; 10 mg/kg i.p. daily): 10.8
- Average score ([6]; 30 mg/kg i.p. daily): 0.37**
- Maximal score ([6]; 30 mg/kg i.p. daily): 2.0*
- Onset of disease (1st day of score > 1) ([6]; 30 mg/kg i.p. daily): 14.0***
- Sum of scores ([6]; 30 mg/kg i.p. daily): 5.6**
- effect on clinical scores in the second peak (classical acute EAE), days 10-13 ([6]; 30 mg/kg i.p., fumarate): clearly improved the clinical course; also recorded: significant delaying and ameliorating effects
- effect on clinical score of EAE, days 11 and 12 p.i. ([7]; 1 mg dosage i.p. daily from day 1, female Lewis rats, fumarate): significant disease-aggravating effect; also recorded: disease-aggravating effects
- effect on clinical score of EAE, day 15 p.i. ([7]; 10 mg dose i.p. daily from day 1, female Lewis rats, fumarate): significantly reduced clinical score
- shortening of the latency until onset of disease ([7]; 10 mg/kg i.p. daily from day 1, female Lewis rats): about 1 day

Reference: patent US7368421B2, “Use of dipeptidyl peptidase IV inhibitors in the treatment of multiple sclerosis” (Probiodrug AG, priority 2001, dated 2008)
